Values of other authors in paper PMC11711049 (Cancer Science, 2024).

How the values were obtained:
[1] = system: cholangiocarcinoma with an FGFR2 gene fusion or other rearrangement; settings: cholangiocarcinoma patients; cited from earlier work
[2] = system: cholangiocarcinoma; settings: first‐line, patients with cholangiocarcinoma; cited from earlier work

| Compound | median OS [1] | median PFS [1] | response rate / ORR [1] | ORR [2] | median OS [2] | median PFS [2] |
| --- | --- | --- | --- | --- | --- | --- |
| CCN1C(=O)N(c2c(F)c(OC)cc(OC)c2F)Cc2cnc3[nH]c(CN4CCOCC4)cc3c21 [pemigatinib, Pemigatinib] | 21.1 months | 6.9 months | 35.5% |  |  |  |
| gemcitabine and cisplatin |  |  |  | 26% | 11.7 months | 8.0 months |
